Numbered stars: 1 amine (or outer) side, 2 acyl side, 3 side chain; on linkers, the order of the positions; unused ones are H or OH. Bridge positions count the residues as written; N and C are the ends. Square brackets hold non-standard residues; d marks the D form. Peptide text beside a SMILES is read from it. * marks the point of attachment. C20 diacid = O=C(O)CCCCCCCCCCCCCCCCCCC(=O)*; γGlu = O=C(O)[C@H](CCC(=O)[*:2])N[*:1]; Hyp = O=C(O)[C@@H]1C[C@@H](O)CN1
Molecular target: T1, hAMY3 receptor (Homo sapiens, UniProt O60896+P30988)
T1 sequence (P30988 25-474): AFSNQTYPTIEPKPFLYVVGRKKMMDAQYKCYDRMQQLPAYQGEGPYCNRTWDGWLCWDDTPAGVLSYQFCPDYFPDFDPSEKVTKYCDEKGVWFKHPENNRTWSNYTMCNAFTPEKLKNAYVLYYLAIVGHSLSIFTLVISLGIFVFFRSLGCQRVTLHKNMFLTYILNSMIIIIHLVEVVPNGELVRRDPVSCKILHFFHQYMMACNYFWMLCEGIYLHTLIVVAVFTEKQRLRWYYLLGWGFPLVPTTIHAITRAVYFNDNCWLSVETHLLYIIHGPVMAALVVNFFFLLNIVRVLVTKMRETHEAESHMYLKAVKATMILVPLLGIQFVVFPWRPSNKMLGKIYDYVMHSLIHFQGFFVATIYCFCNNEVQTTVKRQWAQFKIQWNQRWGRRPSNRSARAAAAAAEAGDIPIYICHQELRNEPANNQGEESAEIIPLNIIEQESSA
T1 sequence (O60896 24-148 partner): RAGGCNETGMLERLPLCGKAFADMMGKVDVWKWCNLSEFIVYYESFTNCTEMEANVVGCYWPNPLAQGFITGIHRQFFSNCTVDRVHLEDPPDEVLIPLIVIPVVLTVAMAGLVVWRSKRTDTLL
Experiment: cAMP assay for in vitro receptor activation, hAMY3-R
Assay type: cell-based
Conditions: cAMP assay, hAMY3 receptor; read-out: hAMY3R EC50
Experimental: General Protocols for cAMP Assays for Measuring In Vitro Receptor Activation
Cells stably overexpressing the hAMY3 receptor were obtained from Ogeda (now Astellas Pharma), sub-cloned and a monoclonal cell-line with an appropriate assay-window was expanded, aliquoted and frozen.
An aliquot was thawed and plated in DPBS with 0.05% casein and 0.5 mM IBMX as 2000 cells/well in a 384-well format. The cells were then immediately stimulated for 30 min at room temperature with graded doses of test compound using human amylin (Bachem, cat no. H-7905) as a positive control. cAMP accumulation was measured using a Cisbio assay for Gs coupled receptors (cat. no. 62AM4PEC), where the assay reagents were added as per the manufacturer's instructions and time-resolved fluorescence energy transfer recorded after one hour.

EC50 [nM]	Structure (SMILES)
0.027	CC[C@H](C)[C@H](NC(=O)[C@H](CCC(N)=O)NC(=O)[C@H](Cc1c[nH]cn1)NC(=O)[C@H](C)NC(=O)[C@H](CC(C)C)NC(=O)[C@H](CCCNC(=N)N)NC(=O)[C@H](CCC(N)=O)NC(=O)[C@@H](NC(=O)[C@@H](NC(=O)[C@@H]1CSSC[C@H](NC(=O)[C@H](CCCCN)NC(=O)CC[C@H](NC(=O)CCCCCCCCCCCCCCCCCCC(=O)O)C(=O)O)C(=O)N[C@@H](CC(N)=O)C(=O)N[C@@H](Cc2ccccc2)C(=O)N[C@@H](C)C(=O)N[C@@H]([C@@H](C)O)C(=O)N1)[C@@H](C)O)C(C)C)C(=O)N[C@@H](Cc1ccc(O)cc1)C(=O)N[C@@H](CCC(N)=O)C(=O)N[C@@H](Cc1ccccc1)C(=O)N[C@H](C(=O)N[C@@H](CC(=O)O)C(=O)N[C@@H](CCCCN)C(=O)N[C@@H](CC(=O)O)C(=O)N[C@@H](CCCCN)C(=O)N[C@@H](CC(=O)O)C(=O)N[C@@H](CC(N)=O)C(=O)N[C@H](C(=O)N[C@@H](C)C(=O)N1CCC[C@H]1C(=O)N[C@@H](CCCNC(=N)N)C(=O)N[C@H](C(=O)N[C@@H](CCCCN)C(=O)N[C@H](C(=O)NCC(=O)N[C@@H](CO)C(=O)N[C@@H](CC(N)=O)C(=O)NCC(=O)N[C@@H](Cc1ccc(O)cc1)C(N)=O)C(C)C)[C@@H](C)O)C(C)C)[C@@H](C)O [compound 378] ({C20 diacid-γGlu}-KCNFATCTVQRLAHQIYQFTDKDKDNVAPRTKVGSNGY-NH2; disulfide 2-7)
0.071	CC[C@H](C)[C@H](NC(=O)[C@H](CCC(N)=O)NC(=O)[C@H](Cc1c[nH]cn1)NC(=O)[C@H](C)NC(=O)[C@H](CC(C)C)NC(=O)[C@H](CCCNC(=N)N)NC(=O)[C@H](CCC(N)=O)NC(=O)[C@@H](NC(=O)[C@@H](NC(=O)[C@@H]1CSSC[C@H](NC(=O)CN)C(=O)N[C@@H](CCCNC(=N)N)C(=O)N[C@@H](Cc2ccccc2)C(=O)NCC(=O)N[C@@H]([C@@H](C)O)C(=O)N1)[C@@H](C)O)C(C)C)C(=O)N[C@@H](Cc1ccc(O)cc1)C(=O)N[C@@H](CCC(N)=O)C(=O)N[C@@H](Cc1ccccc1)C(=O)N[C@H](C(=O)N[C@@H](CC(=O)O)C(=O)N[C@@H](CCCCN)C(=O)N[C@@H](CC(=O)O)C(=O)N[C@@H](CCCCN)C(=O)N[C@@H](CC(=O)O)C(=O)N[C@@H](CC(N)=O)C(=O)N[C@H](C(=O)N[C@@H](C)C(=O)N1CCC[C@H]1C(=O)N[C@@H](CCCNC(=N)N)C(=O)N[C@@H](CO)C(=O)N[C@@H](CCCCN)C(=O)N[C@H](C(=O)N[C@@H](CO)C(=O)N1CCC[C@H]1C(=O)N[C@@H](CCC(N)=O)C(=O)NCC(=O)N[C@@H](Cc1ccc(O)cc1)C(N)=O)C(C)C)C(C)C)[C@@H](C)O [compound 174] (H-GCRFGTCTVQRLAHQIYQFTDKDKDNVAPRSKVSPQGY-NH2; disulfide 2-7; N-terminus assumed)
0.029	CC[C@H](C)[C@H](NC(=O)[C@H](CC(N)=O)NC(=O)[C@@H](NC(=O)[C@H](CCCNC(=N)N)NC(=O)[C@@H]1CCCN1C(=O)[C@H](C)NC(=O)[C@@H](NC(=O)[C@H](CC(N)=O)NC(=O)[C@H](CC(=O)O)NC(=O)[C@H](CCCCN)NC(=O)[C@H](CC(=O)O)NC(=O)[C@H](CCCCN)NC(=O)[C@H](CC(=O)O)NC(=O)[C@@H](NC(=O)[C@H](Cc1ccccc1)NC(=O)[C@H](CCC(N)=O)NC(=O)[C@H](Cc1ccc(O)cc1)NC(=O)[C@@H](NC(=O)[C@H](CCC(N)=O)NC(=O)[C@H](Cc1c[nH]cn1)NC(=O)[C@H](C)NC(=O)[C@H](CC(C)C)NC(=O)[C@H](CCCNC(=N)N)NC(=O)[C@H](CCC(N)=O)NC(=O)[C@@H](NC(=O)[C@@H](NC(=O)[C@@H]1CSSC[C@H](NC(=O)CN)C(=O)N[C@@H](CCCNC(=N)N)C(=O)N[C@@H](Cc2ccccc2)C(=O)NCC(=O)N[C@@H]([C@@H](C)O)C(=O)N1)[C@@H](C)O)C(C)C)[C@@H](C)CC)[C@@H](C)O)C(C)C)[C@@H](C)O)C(=O)NCC(=O)N1CCC[C@H]1C(=O)N[C@@H](CCC(N)=O)C(=O)NCC(=O)N[C@@H](Cc1ccc(O)cc1)C(N)=O [compound 379] (H-GCRFGTCTVQRLAHQIYQFTDKDKDNVAPRTNIGPQGY-NH2; disulfide 2-7)
0.017	CC[C@H](C)[C@H](NC(=O)[C@H](CCC(N)=O)NC(=O)[C@H](Cc1c[nH]cn1)NC(=O)[C@H](C)NC(=O)[C@H](CC(C)C)NC(=O)[C@H](CCCNC(=N)N)NC(=O)[C@H](CCC(N)=O)NC(=O)[C@@H](NC(=O)[C@@H](NC(=O)[C@@H]1CSSC[C@H](NC(=O)[C@H](CCCCN)NC(=O)CC[C@H](NC(=O)CCCCCCCCCCCCCCCCCCC(=O)O)C(=O)O)C(=O)N[C@@H](CC(N)=O)C(=O)N[C@@H](Cc2ccccc2)C(=O)N[C@@H](C)C(=O)N[C@@H]([C@@H](C)O)C(=O)N1)[C@@H](C)O)C(C)C)C(=O)N[C@@H](Cc1ccc(O)cc1)C(=O)N[C@@H](CCC(N)=O)C(=O)N[C@@H](Cc1ccccc1)C(=O)N[C@H](C(=O)N[C@@H](CC(=O)O)C(=O)N[C@@H](CCCCN)C(=O)N[C@@H](CC(=O)O)C(=O)N[C@@H](CCCCN)C(=O)N[C@@H](CC(=O)O)C(=O)N[C@@H](CC(N)=O)C(=O)N[C@H](C(=O)N[C@@H](C)C(=O)N1CCC[C@H]1C(=O)N[C@@H](CCCNC(=N)N)C(=O)N[C@H](C(=O)N[C@@H](CCC(=O)O)C(=O)N[C@H](C(=O)NCC(=O)N[C@@H](CO)C(=O)N[C@@H](CC(N)=O)C(=O)NCC(=O)N[C@@H](Cc1ccc(O)cc1)C(N)=O)C(C)C)[C@@H](C)O)C(C)C)[C@@H](C)O [compound 370] ({C20 diacid-γGlu}-KCNFATCTVQRLAHQIYQFTDKDKDNVAPRTEVGSNGY-NH2; disulfide 2-7)
0.007	CC[C@H](C)[C@H](NC(=O)[C@H](CCC(N)=O)NC(=O)[C@H](Cc1c[nH]cn1)NC(=O)[C@H](C)NC(=O)[C@H](CC(C)C)NC(=O)[C@H](CCCNC(=N)N)NC(=O)[C@H](CCC(N)=O)NC(=O)[C@@H](NC(=O)[C@@H](NC(=O)[C@@H]1CSSC[C@H](NC(=O)[C@@H](N)CCCCN)C(=O)N[C@@H](CC(N)=O)C(=O)N[C@@H](Cc2ccccc2)C(=O)N[C@@H](C)C(=O)N[C@@H]([C@@H](C)O)C(=O)N1)[C@@H](C)O)C(C)C)C(=O)N[C@@H](Cc1ccc(O)cc1)C(=O)N[C@@H](CCC(N)=O)C(=O)N[C@@H](Cc1ccccc1)C(=O)N[C@H](C(=O)N[C@@H](CC(=O)O)C(=O)N[C@@H](CCCCN)C(=O)N[C@@H](CC(=O)O)C(=O)N[C@@H](CCCCN)C(=O)N[C@@H](CC(=O)O)C(=O)N[C@@H](CC(N)=O)C(=O)N[C@H](C(=O)N[C@@H](C)C(=O)N1CCC[C@H]1C(=O)N1CCC[C@H]1C(=O)N[C@H](C(=O)N[C@@H](CCC(=O)O)C(=O)N[C@H](C(=O)NCC(=O)N[C@@H](CO)C(=O)N[C@@H](CC(N)=O)C(=O)NCC(=O)N1C[C@H](O)C[C@H]1C(N)=O)C(C)C)[C@@H](C)O)C(C)C)[C@@H](C)O [compound 10] (H-KCNFATCTVQRLAHQIYQFTDKDKDNVAPPTEVGSNG[Hyp]-NH2; disulfide 2-7; N-terminus assumed)
0.01	CC[C@H](C)[C@H](NC(=O)[C@H](CCCCN)NC(=O)[C@H](CO)NC(=O)[C@H](CCCNC(=N)N)NC(=O)[C@@H]1CCCN1C(=O)[C@H](C)NC(=O)[C@@H](NC(=O)[C@H](CC(N)=O)NC(=O)[C@H](CC(=O)O)NC(=O)[C@H](CCCCN)NC(=O)[C@H](CC(=O)O)NC(=O)[C@H](CCCCN)NC(=O)[C@H](CC(=O)O)NC(=O)[C@@H](NC(=O)[C@H](Cc1ccccc1)NC(=O)[C@H](CCC(N)=O)NC(=O)[C@@H](NC(=O)[C@H](CC(C)C)NC(=O)[C@H](Cc1ccccc1)NC(=O)[C@H](CC(N)=O)NC(=O)[C@H](C)NC(=O)[C@H](CC(C)C)NC(=O)[C@H](CCCNC(=N)N)NC(=O)[C@H](CCC(N)=O)NC(=O)[C@@H](NC(=O)[C@H](C)NC(=O)[C@@H]1CSSC[C@H](NC(=O)[C@@H](N)CCCCN)C(=O)N[C@@H](CC(N)=O)C(=O)N[C@@H](Cc2ccccc2)C(=O)N[C@@H](C)C(=O)N[C@@H]([C@@H](C)O)C(=O)N1)[C@@H](C)O)C(C)C)[C@@H](C)O)C(C)C)C(=O)NCC(=O)N1CCC[C@H]1C(=O)N[C@@H](CCC(N)=O)C(=O)NCC(=O)N[C@@H](Cc1ccc(O)cc1)C(N)=O [compound 363] (H-KCNFATCATQRLANFLVQFTDKDKDNVAPRSKIGPQGY-NH2; disulfide 2-7; N-terminus assumed)

From patent publication US12139520B2 (priority 2020, dated 2024)
